The text below walks through data of patent US10285983B2, “3-(1H-pyrrolo[2,3-B]pyridin-2-yl)-1H-pyrazolo[3,4-B] pyridines and therapeutic uses thereof” (Samumed, LLC, priority 2015, dated 2019).

pEC50: −log10 of the molar value.

Common to all, as to assay type: cell-based
Assay [1] has as its system primary human fibroblasts derived from IPF patients (LL29 cells). The experiment in a line: Inhibition of fibrotic process, αSMA staining in TGF-β1 treated LL29 fibroblasts. The conditions noted are these: Fibroblast, 96 h, TGF-β1 20 ng/mL, 4 days; for pEC50: % αSMA positive cells. From the text: Representative compounds were screened using primary human fibroblasts (derived from IPF patients) treated with TGF-β1 to determine their ability to inhibit the fibrotic process.
Primary human fibroblasts derived from IPF patients (LL29 cells) [^1Xiaoqiu Liu, et. al., “Fibrotic Lung Fibroblasts Show Blunted Inhibition by cAMP Due to Deficient cAMP Response Element-Binding Protein Phosphorylation”, Journal of Pharmacology and Experimental Therapeutics (2005), 315(2), 678-687; ^2Watts, K. L., et. al., “RhoA signaling modulates cyclin D1 expression in human lung fibroblasts; implications for idiopathic pulmonary fibrosis”, Respiratory Research (2006), 7(1), 88] were obtained from American Type Culture Collection (ATCC) and expanded in F12 medium supplemented with 15% Fetal Bovine Serum and Penicillin/Streptomycin.
Each compound was dissolved in DMSO as a 10 mM stock and used to prepare compound source plates. Serial dilution (1:2, 11-point dose-response curves from […] to […]) and compound transfer was performed using the ECHO 550 (Labcyte, Sunnyvale, Calif.) into 384-well clear bottom assay plates (Greiner Bio-One) with appropriate DMSO backfill for a final DMSO concentration of 0.1%. LL29 cells are plated at 1,500 cells/well in 80 μL/well F12 medium supplemented with 1% Fetal Bovine Serum. One hour after addition of the cells, TGF-β1 (Peprotech; 20 ng/mL) was added to the plates to induce fibrosis (ref. 1 and 2 above). Wells treated with TGF-β1 and containing DMSO were used as controls. Cells were incubated at 37° C. and 5% CO2 for 4 days. Following incubation for 4 days, SYTOX green nucleic acid stain (Life Technologies [Thermo Fisher Scientific]) was added to the wells at a final concentration of 1 μM and incubated at room temperature for 30 min. Cells were then fixed using 4% formaldehyde (Electron Microscopy Sciences), washed 3 times with PBS followed by blocking and permeabilization using 3% Bovine Serum Albumin (BSA; Sigma) and 0.3% Triton X-100 (Sigma) in PBS. Cells were then stained with antibody specific to α-smooth muscle actin (αSMA; Abcam) (ref. 1 and 2 above) in 3% Bovine Serum Albumin (BSA; Sigma) and 0.3% Triton X-100 (Sigma) in PBS, and incubated overnight at 4° C. Cells were then washed 3 times with PBS, followed by incubation with Alexa Flor-647 conjugated secondary antibody (Life Technologies [Thermo Fisher Scientific]) and DAPI at room temperature for 1 hour. Cells were then washed 3 times with PBS and plates were sealed for imaging. αSMA staining was imaged by excitation at 630 nm and emission at 665 nm and quantified using the Compartmental Analysis program on the CellInsight CX5 (Thermo Scientific). Dead or apoptotic cells were excluded from analysis based on positive SYTOX green staining. % of total cells positive for αSMA were counted in each well and normalized to the average of 11 wells treated with TGF-β1 on the same plate using Dotmatics' Studies Software. The normalized averages (fold change over untreated) of 3 replicate wells for each compound concentration were used to create dose-responses curves and EC50 values were calculated using non-linear regression curve fit in the Dotmatics' Studies Software. For EC50 of >10 μM, the percent inhibition at 10 μM is provided.

Assay [2] concerns Wnt activity (Sp5-Luc reporter, SW480 colon carcinoma cells). The experiment in a line: Wnt activity screening assay, Sp5-Luc reporter gene in SW480 cells. The conditions noted are these: Homo sapiens; for pEC50: overnight incubation; for inhibition at 10 µM: given for EC50 >10 μM, read-out: percent inhibition at 10 μM. The text has this: The screening assay for Wnt activity is described as follows. Reporter cell lines can be generated by stably transducing cancer cell lines (e.g., colon cancer) or primary cells (e.g., IEC-6 intestinal cells) with a lentiviral construct that includes a Wnt-responsive promoter driving expression of the firefly luciferase gene.
SW480 colon carcinoma cells were transduced with a lentiviral vector expressing luciferase with a human Sp5 promoter consisting of a sequence of eight TCF/LEF binding sites. SW480 cells stably expressing the Sp5-Luc reporter gene and a hygromycin resistance gene were selected by treatment with 150 μg/mL of hygromycin for 7 days. These stably transduced SW480 cells were expanded in cell culture and used for all further screening activities. Each compound was dissolved in DMSO as a 10 mM stock and used to prepare compound source plates. Serial dilution (1:3, 10-point dose-response curves starting from 10 μM) and compound transfer was performed using the ECHO 550 (Labcyte, Sunnyvale, Calif.) into 384-well white solid bottom assay plates (Greiner Bio-One) with appropriate DMSO backfill for a final DMSO concentration of 0.1%. For Sp5-Luc reporter gene assays, the cells were plated at 4,000 cells/well in 384-well plates with medium containing 1% fetal bovine serum and incubated overnight at 37° C. and 5% CO2. Following incubation, 20 μl of BrightGlo luminescence reagent (Promega) was added to each well of the 384-well assay plates. The plates were placed on an orbital shaker for 2 min and then luminescence was quantified using the Envision (Perkin Elmer) plate reader. Readings were normalized to DMSO only treated cells, and normalized activities were utilized for EC50 calculations using the dose-response log (inhibitor) vs. response—variable slope (four parameters) nonlinear regression feature available in GraphPad Prism 5.0 (or Dotmatics). For EC50 of >10 μM, the percent inhibition at 10 μM is provided.
A general note: A reporter such as luciferase makes a cellular process visible.

The next assay concerns SW480 colon cancer cells. The experiment in a line: Cell viability assay (CellTiter-Blue). As to conditions: Homo sapiens, 96 h, four days; for inhibition at 10 µM: given for EC50 >10 μM, read-out: percent inhibition at 10 μM. The procedure: Representative compounds were screened using the following assay procedure to assess the effect on cell viability as described below.
Each compound was dissolved in DMSO as a 10 mM stock and used to prepare compound source plates. Serial dilution (1:3, 8-point dose-response curves from 10 μM to 0.0045 μM) and compound transfer was performed using the ECHO 550 (Labcyte, Sunnyvale, Calif.) into 96-well clear bottom, black-walled plates (Corning-Costar).
Approximately 2×10^3 SW480 colon cancer cells were seeded into each well and allowed to incubate in the presence or absence of compound for four days at 37° C./5% CO2. Eight replicates of DMSO-treated cells served as controls and cells treated with compound were performed in duplicate.
After incubation, 20 μL of CellTiter-Blue (Promega) was added to each well allowed to incubate for approximately 3 hours. This reagent was a buffered solution which contains resazurin, metabolically active cells were able to reduce rezarurin (blue) into resorufin (pink) which was highly fluorescent. This measured fluorescence was used as a readout for cell viability.
After incubation, the plates were read at Ex 560 nm Em 590 nm (Cytation 3, BioTek). Dose-response curves were generated and EC50 concentration values were calculated using non-linear regression curve fit in the GraphPad Prism (San Diego, Calif.) or Dotmatics' Studies Software (Bishops Stortford, UK). For EC50 of >10 μM, the percent inhibition at 10 μM is provided.
(Alamar Blue is a resazurin reagent that responds to reducing activity.)

Assay [3] concerns IL-6 (THP-1 human monocyte cell line). The experiment in a line: IL-6 inhibition in LPS-stimulated THP-1 cells (HTRF). The conditions noted are these: LPS 500 ng/mL, 22 hours, IL6 HTRF. The procedure: Human monocyte cell line (THP-1 cells; Catalog # TIB-202, ATCC, Manassas, Va.) were cultured in Roswell Park Memorial Institute (RPMI) 1640 Medium (Catalog #21870-100, Buffalo, N.Y.) with 1% L-glutamine, 1% HEPES, 1% Sodium Pyruvate, 2% Sodium Bicarbonate supplemented with 100 units/mL penicillin, 50 μg/mL streptomycin, 2-mercaptoethanol (0.05 mM) [basal medium] and 10% fetal bovine serum (Catalog #16140089, Life Technologies, Carlsbad, Calif.) at 37° C. and 5% CO2.
THP-1 cells were cultured in basal media with 1% FBS for 24 hours before the start of the assay. Each compound was dissolved in DMSO as a 10 mM stock and used to prepare compound source plates. Serial dilution (1:3, 10-point dose-response curves starting from […]) and compound transfer was performed using the ECHO 550 (Labcyte, Sunnyvale, Calif.) into 384-well white low volume assay plates (Greiner Bio-One) with appropriate DMSO backfill for a final DMSO concentration of 0.1%. THP-1 cells were plated at 5000 cells/well in the 384-well plates and incubated at 37° C. for 2 h. 500 ng/mL of LPS was added after 2 hours and cells were incubated for another 22 hours at 37° C. Plates were spun in a centrifuge for 1 minute at 10,000 rpm and a mixture of anti-IL6 XL665, and anti-IL6 Cryptate diluted in reconstitution buffer (Cisbio Inc.) was added to each well. Following incubation for 3 hrs at room temperature, Homogeneous Time-Resolved Fluorescence (HTRF) was measured using the Envision (Perkin Elmer) at 665 nm and […]. The ratio of fluorescence at 665 nm to 620 nm was used as a readout for IL6 quantification. All samples were processed in duplicate. Readings were normalized to DMSO treated cells and normalized activities were utilized for EC50 calculations using the dose-response log (inhibitor) vs. response—variable slope (four parameters) nonlinear regression feature available in GraphPad Prism 5.0 (or Dotmatics). For EC50 of >10 μM, the percent inhibition at 10 μM is provided.
(In TR-FRET formats the signal depends on donor and acceptor labels being close together.)

In the case of `O=C(Nc1cncc(-c2cnc3[nH]nc(-c4cc5c(N6CCCCC6)ccnc5[nH]4)c3c2)c1)C1CC1` [Compound 188, N-(5-(3-(4-(Piperidin-1-yl)-1H-pyrrolo[2,3-b]pyridin-2-yl)-1H-pyrazolo[3,4-b]pyridin-5-yl)pyridin-3-yl)cyclopropanecarboxamide], the pEC50 in assay [1] was 5.75; in assay [2] it was 5.48; with SW480 colon cancer cells, under 5.00; in assay [3] it was 6.46. Besides, in the assay with SW480 colon cancer cells, the inhibition at 10 µM stood at 40.8%.
In the case of `Fc1cccc(-c2ccnc3[nH]c(-c4n[nH]c5ncc(-c6cncc(CNCc7ccccc7)c6)cc45)cc23)c1` [Compound 24, N-Benzyl-1-(5-(3-(4-(3-fluorophenyl)-1H-pyrrolo[2,3-b]pyridin-2-yl)-1H-pyrazolo[3,4-b]pyridin-5-yl)pyridin-3-yl)methanamine], the pEC50 was 5.98 in assay [1], under 5.00 in assay [2], 5.61 in the assay with SW480 colon cancer cells and 5.38 in assay [3]. Moreover, the inhibition at 10 µM in assay [2] is 25.8%.
Regarding `CC(C)(C)C(=O)Nc1cncc(-c2cnc3[nH]nc(-c4cc5c(-c6ccc(F)cc6)ccnc5[nH]4)c3c2)c1` [Compound 36, N-(5-(3-(4-(4-Fluorophenyl)-1H-pyrrolo[2,3-b]pyridin-2-yl)-1H-pyrazolo [3,4-b]pyridin-5-yl)pyridin-3-yl)pivalamide], the pEC50 (in assay [1]; in assay [2]; with SW480 colon cancer cells) was under 5.00 in each case. In addition, the inhibition at 10 µM in assay [1] (given for EC50 >10 μM, read-out: percent inhibition at 10 μM) was determined as 33.9%; in assay [2], 12.7%; in the assay with SW480 colon cancer cells it was 11.9%.
Regarding `c1cc(N2CCCCC2)c2cc(-c3n[nH]c4ncc(C5CCNCC5)cc34)[nH]c2n1` [Compound 601, 3-(4-(Piperidin-1-yl)-1H-pyrrolo[2,3-b]pyridin-2-yl)-5-(piperidin-4-yl)-1H-pyrazolo[3,4-b]pyridine], the pEC50 in assay [1] is 5.02; in assay [2], under 5.00; with SW480 colon cancer cells, 5.27; in assay [3], 5.41. The inhibition at 10 µM in assay [2] turned out to be 36.6%.

For orientation: pEC50 means −log10 of the EC50, conventionally taken in molar units. The low end stands for a high EC50, the high end for a low EC50. As a reminder, the inhibition is how much of the control response was suppressed.
